Reference: patent US9040566B2, “Adenosine A1 agonists for the treatment of glaucoma and ocular hypertension” (Bayer Intellectual Property GmbH, priority 2010, dated 2015)

Experiments:
rabbits = settings: literature (Crosson); cited from earlier work
cynomolgus monkeys = settings: literature (Kaufman et al.); cited from earlier work
Wistar rats = experiment: IOP measurements in rats (anesthetized, topical administration to the eye); type: in vivo; settings: rat, 10 mg/ml, 10 μl
Experimental: B-1. IOP Measurements in Rats
Wistar rats with a body weight of about 300 g were anesthetized with isoflurane (2-3% in O2:N2O=1:2). The compounds were dissolved/suspended in an aqueous solution of sodium chloride (0.9%) and administered topically to the eye in 10 μl volume at a concentration of 10 mg/ml. IOP was measured with a rebound tonometer (TonoLab) at different time points after application of the compounds. Ocular pressure and effects of hemodynamic parameters can be monitored in this model. N^6-Cyclopentyl-Adenosine (CPA) is a known adenosine A1 agonist having the structure shown below: […]

Normotensive wistar rats = experiment: Blood pressure measurement in telemetric rats (conscious, topical administration to the eye); type: in vivo; settings: conscious rat, 10 mg/ml
Excerpt: B-2. Blood Pressure Measurement in Telemetric Rats
Normotensive wistar rats with a body weight of 300 to 350 g were used for this experimental study. Blood pressure was monitored in freely moving conscious animals by radiotelemetry. Briefly, the telemetric system (DSI Data Science International, MN, USA) is composed on 3 basic elements: implantable transmitters (TA11PA-C40), receivers (RA1010) and a computer-based acquisition software (Dataquest A.R.T 2.1 for Windows). Rats were instrumented with pressure implants for chronic use at least 14 days prior the experiments. Rats were anesthetized with isoflurane (2-3% in O2:N2O=1:2). During catheter implantation under anesthesia, rats were kept on a heating mat. A fluid-filled sensor catheter was inserted upstream into the exposed descending aorta between the iliac bifurcation and the renal arteries. According to the DSI guidelines the tip of the telemetric catheter was located just caudal to the renal arteries and secured by tissue adhesive. The transmitter body was affixed to the inner peritoneal wall before closure of abdomen. In a hardware configuration equipped for 24 animals, each rat cage was positioned on top of an individual receiver platform. After activation of the implanted transmitters, A.R.T., an on-line data acqusition system, samples data and converts telemetric pressure signals into mm Hg. The compounds were dissolved/suspended in an aqueous solution of sodium chloride (0.9%) and administered topically to the eye in 10 μl volume at a concentration of 10 mg/ml. Given are % deviations from the control run-in period of 2 hours before substance administration.

[1] = tested on: Female New Zealand rabbits; experiment: IOP measurements in conscious rabbits; type: in vivo; settings: conscious rabbit, topical, 30 μl
Experimental: B-5. IOP Measurements in Conscious Rabbits
Female New Zealand rabbits with a body weight of about 4-5 kg were used to measure inner eye pressure (IOP). The compounds were dissolved/suspended in a solution of 10% transcutol, 10% solutol and 80% PBS, and given by topical administration at the eye in 30 μl volume. IOP was measured with a rebound tonometer (TonoVet) at different time points after application of the drugs. INO-8875 is a known adenosine A1 agonist having the structure shown below: […]

New Zealand rabbits = experiment: Assessment of blood pressure in telemetric rabbits; type: in vivo; settings: conscious rabbit, topical, 30 μl
Experimental: B-6. Assessment of Blood Pressure and Heart Rate in Telemetric Rabbits Implantation of Telemetric Senders in Female New Zealand Rabbits:
New Zealand rabbits were used for implantation of the telemetric senders. Rabbits were pre-anaesthetized with Rompun® and Ketavet® i.m. at a dose of 5 mg/kg (in 0.25 ml/kg)+40 mg/kg (in 0.40 ml/kg) respectively. Anaesthesia was maintained with an i.v. infusion of Rompun® and Ketavet® (5-15 ml/h) with a solution of Rompun 2 ml (20 mg/1 ml)+Ketavet 4 ml (100 mg/ml) and 60 ml 0.9% aqueous solution of sodium chloride. Before surgery the hairs at the inner side of the back leg were completely removed and the skin were treated with local anaesthetic Xylocaln® Spray and disinfected with Braunol®. The rabbits were transferred to a sterile surgery unit and covered with sterile swabs and compressions. The skin was opened and the arteria femoralis was carefully dissected free and the pressure catheter of the telemetric implant C50 PXT® (DSI/Data Science International, St. Paul, Minn., U.S.A.) was inserted in the […] and forwarded abdominally under control of the pressure signal. The signal was detected with the RMC1-DSI® receiver plates and visualized with the PONEMAH® physiology platform software DSI/Data Science International, St. Paul, Minn., U.S.A.). After detection of a stable blood pressure signal the catheter was fixed with tissue-glue “Gewebepad” (DSI) and the two ECG electrodes were cut close to the transmitter. The transmitter was fixed under the skin of the rabbit. The wound was closed and finally treated with Nebacetin® Powder Spray. Post-operative analgesia was done with Metamizol i.m. 50 mg/kg in 0.1 ml/kg for 5 days after surgery. In addition a 5 day antibiotic therapy with Terramycin®/LA 20 mg/kg with 0.1 ml/kg was applied i.m. All rabbits recovered fully within one week of the surgery and were after 2 weeks adjustment to the measurement procedure used for the blood pressure detection.
Registration of MAP and HR in Conscious Female New Zealand Rabbits:
The rabbits with telemetric implants were housed for 5 hours in a transportation box which was placed on the RMC1-DSI® receiver plates. The signals were visualized, compiled and analyzed with the PONEMAH® physiology platform software. The systolic (SAP), diastolic (DAP) and mean arterial blood pressure (MAP) levels were registered in mmHg and the heart rate (HR) in beat/minutes was calculated from the interval between the systoles. Baseline levels for SAP, DAP and MAP as for HR were registered over a 2 hour equilibration period. The compounds were dissolved/suspended in a solution of 10% transcutol, 10% solutol and 80% PBS, and given by topical administration at the eye in 30 μl volume. Controls received the corresponding solvents. Baseline levels for SAP, DAP and MAP as for HR were registered over a 3 hour period after application.

OC[C@H]1O[C@@H](n2cnc3c(NC4CCCCC4)ncnc32)[C@H](O)[C@@H]1O [CHA, N6-cyclohexyl-adenosine]
effect on intraocular pressure (rabbits): lower intraocular pressure | effect on intraocular pressure (cynomolgus monkeys): lower intraocular pressure

OC[C@H]1O[C@@H](n2cnc3c(NC4CCCC4)ncnc32)[C@H](O)[C@@H]1O [CPA, N^6-Cyclopentyl-Adenosine]
IOP as percent of zero value (Wistar rats; time 0 min): 100.0% | IOP as percent of zero value (Wistar rats; time 15 min): 65.0% | IOP as percent of zero value (Wistar rats; time 30 min): 58.5% | IOP as percent of zero value (Wistar rats; time 45 min): 46.3% | IOP as percent of zero value (Wistar rats; time 60 min): 42.5% | IOP as percent of zero value (Wistar rats; time 90 min): 44.8% | IOP as percent of zero value (Wistar rats; time 120 min): 59.0% | mean arterial pressure (MAP) as percent change of zero value (Normotensive wistar rats; time 0.25 h): −25.4% | mean arterial pressure (MAP) as percent change of zero value (Normotensive wistar rats; time 0.75 h): −71.3% | mean arterial pressure (MAP) as percent change of zero value (Normotensive wistar rats; time 1.25 h): −58.9% | mean arterial pressure (MAP) as percent change of zero value (Normotensive wistar rats; time 1.75 h): −42.6% | mean arterial pressure (MAP) as percent change of zero value (Normotensive wistar rats; time 2.25 h): −30.3% | mean arterial pressure (MAP) as percent change of zero value (Normotensive wistar rats; time 2.75 h): −17.6% | mean arterial pressure (MAP) as percent change of zero value (Normotensive wistar rats; time 3.25 h): −16.4% | mean arterial pressure (MAP) as percent change of zero value (Normotensive wistar rats; time 3.75 h): −9.0% | mean arterial pressure (MAP) as percent change of zero value (Normotensive wistar rats; time 4.25 h): −8.4% | mean arterial pressure (MAP) as percent change of zero value (Normotensive wistar rats; time 4.75 h): −5.3% | mean arterial pressure (MAP) as percent change of zero value (Normotensive wistar rats; time 5.25 h): −0.7% | mean arterial pressure (MAP) as percent change of zero value (Normotensive wistar rats; time 5.75 h): −2.9% | mean arterial pressure (MAP) as percent change of zero value (Normotensive wistar rats; time 6.25 h): −2.7% | mean arterial pressure (MAP) as percent change of zero value (Normotensive wistar rats; time −0.25 h): 0.0%

O=[N+]([O-])OC[C@H]1O[C@@H](n2cnc3c(NC4CCCC4)ncnc32)[C@H](O)[C@@H]1O [INO-8875]
IOP as percent of zero value ([1]; 1.0 mg/mL, time 0 min): 100.0% | IOP as percent of zero value ([1]; 1.0 mg/mL, time 30 min): 85.3% | IOP as percent of zero value ([1]; 1.0 mg/mL, time 60 min): 86.7% | IOP as percent of zero value ([1]; 1.0 mg/mL, time 90 min): 93.3% | IOP as percent of zero value ([1]; 1.0 mg/mL, time 120 min): 100% | IOP as percent of zero value ([1]; 3.0 mg/mL, time 0 min): 100.0% | IOP as percent of zero value ([1]; 3.0 mg/mL, time 30 min): 89.3% | IOP as percent of zero value ([1]; 3.0 mg/mL, time 60 min): 81.3% | IOP as percent of zero value ([1]; 3.0 mg/mL, time 90 min): 79.0% | IOP as percent of zero value ([1]; 3.0 mg/mL, time 120 min): 87.3% | IOP as percent of zero value ([1]; 10.0 mg/mL, time 0 min): 100.0% | IOP as percent of zero value ([1]; 10.0 mg/mL, time 30 min): 74.0% | IOP as percent of zero value ([1]; 10.0 mg/mL, time 60 min): 60.0% | IOP as percent of zero value ([1]; 10.0 mg/mL, time 90 min): 61.3% | IOP as percent of zero value ([1]; 10.0 mg/mL, time 120 min): 65.0% | mean arterial pressure (MAP) (New Zealand rabbits; 1.0 mg/mL, time 0 min): 123.9 mm Hg | mean arterial pressure (MAP) (New Zealand rabbits; 1.0 mg/mL, time 30 min): 111.3 mm Hg | mean arterial pressure (MAP) (New Zealand rabbits; 1.0 mg/mL, time 60 min): 110.9 mm Hg | mean arterial pressure (MAP) (New Zealand rabbits; 1.0 mg/mL, time 90 min): 112.6 mm Hg | mean arterial pressure (MAP) (New Zealand rabbits; 1.0 mg/mL, time 120 min): 106.0 mm Hg | mean arterial pressure (MAP) (New Zealand rabbits; 3.0 mg/mL, time 0 min): 118.5 mm Hg | mean arterial pressure (MAP) (New Zealand rabbits; 3.0 mg/mL, time 30 min): 101.8 mm Hg | mean arterial pressure (MAP) (New Zealand rabbits; 3.0 mg/mL, time 60 min): 104.9 mm Hg | mean arterial pressure (MAP) (New Zealand rabbits; 3.0 mg/mL, time 90 min): 105.7 mm Hg | mean arterial pressure (MAP) (New Zealand rabbits; 3.0 mg/mL, time 120 min): 109.0 mm Hg | mean arterial pressure (MAP) (New Zealand rabbits; 10.0 mg/mL, time 0 min): 114.5 mm Hg | mean arterial pressure (MAP) (New Zealand rabbits; 10.0 mg/mL, time 30 min): 89.5 mm Hg | mean arterial pressure (MAP) (New Zealand rabbits; 10.0 mg/mL, time 60 min): 86.9 mm Hg | mean arterial pressure (MAP) (New Zealand rabbits; 10.0 mg/mL, time 90 min): 90.3 mm Hg | mean arterial pressure (MAP) (New Zealand rabbits; 10.0 mg/mL, time 120 min): 90.0 mm Hg

C[C@H](Cc1ccccc1)Nc1ncnc2c1ncn2[C@@H]1O[C@H](CO)[C@@H](O)[C@H]1O [R-PIA, R(−)-N6-(2-phenylisopropyl)adenosine]
effect on intraocular pressure (rabbits): lower intraocular pressure | effect on intraocular pressure (cynomolgus monkeys): lower intraocular pressure
